Molecules are shown by their SMILES. Bounds are passed on as bounds.

`CCCCCCC(C)(C)c1ccc(C2=CCCNC2)c(O)c1`: the melting point – broadly, the temperature of the solid-liquid transition – fell in the range of 122 to 123 °C.

The compound `CCC(=O)CC(=O)c1ccc(C2CCC(CC)CC2)cc1` (stereo not drawn) came in with a melting point of 78 °C.

Regarding `O=Cc1cc(-c2ncco2)ccc1Br`, the melting point was 100 to 104 °C.

In turn, `CCC(C(=O)c1ccc(Cl)cc1)n1ncn(-c2ccc(N3CCN(c4nc5ccccc5s4)CC3)cc2)c1=O` (stereo not drawn) returned a melting point of 162 °C.

`CCC(C)(NC(=O)c1cc(Cl)c(N)c(C=NOC)c1)C(=O)CCl` (stereo not drawn) showed a melting point of 140 to 141 °C.

`Cc1nnc2n1-c1ccc(Cl)cc1C(c1ccccc1F)=CC2`: the melting point was 223 to 225 °C.

`COc1cc2c(cc1OCc1ccccc1)C1Cc3c(Cl)cc(OC)c(OCCO)c3CN1CC2` (stereo not drawn): the melting point amounted to 154 °C.

In turn, `CCC(O)(CC)c1ccc(-c2cccc(OCc3ccc(CO)c(CO)c3)c2C)cc1` came in with a melting point of 117 to 118 °C.

The compound `CON1CCC(=Cc2cc(C(C)(C)C)c(O)c(C(C)(C)C)c2)C1=O` yielded a melting point of 169 °C.

Turning to `COC(=O)c1cc(Cl)sc1S(=O)(=O)Cl`, the melting point lay within 95 to 97 °C.

As to `CC(=O)NC[C@H]1CN(c2ccc(N3CCC(=CC#N)CC3)c(F)c2)C(=O)O1`, the melting point was 159 to 160 °C.

`COc1ccc(CSc2cccc(N)c2)cc1` showed a melting point of 85 to 86 °C.

`Cc1cc2cc(Nc3ccnc4cc(-c5ccc(CNCCCN(C)C)cc5)sc34)ccc2[nH]1` registered a melting point of 167 °C.

For the compound `CCCCC[C@H]1CC[C@H](c2ccc(CC#N)cc2)CC1`, the melting point is 53 °C.

The compound `COc1ccc(C(C#Cc2ccccc2)CN(C)C(=O)C(=O)O)cc1OC1CCCC1` (racemic) returned a melting point of 157 to 159 °C.

Compound `CCCCCCCCCCCCCCCCCCOCC(O)Cn1cc(F)c(N)nc1=O` (stereo not drawn) had a melting point of 118 to 119 °C.

`CC(=O)c1ncn(-c2ccccc2)n1`: the melting point was in the range of 174 to 176 °C.

As to `CCc1cc2c(Sc3ccccn3)ncnc2s1`, the melting point lay within 76.5 to 79 °C.

The compound `O=C1CCc2c(-c3ccncc3)sc(-c3ccc(F)cc3)c21` returned a melting point of 193 to 195 °C.

The compound `CC(C)C1(C)N=C(c2nc3ccc(OC(F)F)cc3cc2C(=O)O)NC1=O` (stereo not drawn) displayed a melting point of 208 to 209 °C.

Consider `O=C(Nc1ccc(Oc2ccccc2)cc1)N1CCN(c2ncnc3cc(OCc4ccccc4)c(OCc4ccccc4)cc23)CC1`, for which the melting point fell in the range of 137 to 138 °C.

Take `CN1C(=O)C(NC(=S)Nc2ccccc2)N=C(c2ccccc2)c2ccccc21` (stereo not drawn): the melting point lay in the range of 209 to 211 °C.

Regarding `CCS(=O)(=O)c1cc2c(cc1OC)CCn1c3c(c(-c4cncs4)c1-2)CCCCN(C(C)(C)C)C3=O`, the melting point was 258 to 260 °C.

With `COc1ccc2c(c1)CCC1CCNC(=O)C(CC3(C)OCCO3)=C21` (stereo not drawn), the melting point lay within 192 to 194 °C.

`CN(c1ccc([N+](=O)[O-])cc1[N+](=O)[O-])S(=O)(=O)c1ccccc1` displayed a melting point of 152 to 153 °C.

The compound `COc1ccc(N2C(=O)Cc3ccccc32)cc1F` had a melting point of 133 to 136 °C.

The compound `CSc1ccc(C=C2C(C)=C(CC(=O)O)c3cc(F)c(F)cc32)cc1` had a melting point of 181 to 182 °C.

With `C=CCOC(=O)N1C[C@@H](S)C[C@H]1CNC(=O)c1ccc(C(=O)NCc2ccc(Cl)c(Cl)c2)cn1`, the melting point was in the range of 101 to 105 °C.

Compound `O=C1NCC(Cc2ccccc2Oc2ccccc2)O1` (stereo not drawn) registered a melting point of 100 to 101 °C.

Regarding `Cc1ccc2c(c1)C=Cc1cc(C)ccc1C2c1cn(-c2ncc(C(=O)O)c(NCC(=O)O)n2)c(=O)[nH]c1=O`, the melting point turned out to be 271 °C.

Compound `O=CNC1Cc2ccccc2C1` returned a melting point of 72 to 74 °C.

For the compound `CCn1nc2c(OC)nc3ccccc3c2c1CO`, the melting point lay within 219 to 220 °C.

For `CC1(C2CCCC2)Cc2cc(OCC(=O)O)c(Cl)c(Cl)c2C1=O` (stereo not drawn), the melting point lay in the range of 113 to 114 °C.

As to `CCN1CC=C(CC(=O)NC2(c3ccc(C(F)(F)F)cc3)C(=O)Nc3cc(Cl)cc(Cl)c32)CC1` (single isomer, unassigned; (+)), the melting point was in the range of 155 to 156 °C.

Take `O=C(O)CCCCCCCCCSc1ccccc1O`: the melting point lay within 58 to 59 °C.

Take `CN(O)C(=O)c1ccc(CCCNc2ccc(O)cc2)cc1`: the melting point fell in the range of 152 to 153 °C.

As to `CC(C)C[C@H](NC(=O)C(S)[C@@H](N)Cc1ccccc1)C(=O)O` (stereo partly drawn), the melting point was 96 to 105 °C.

In turn, `NS(=O)(=O)c1ccc(-c2cccc(-c3nc(-c4ccc(Cl)s4)cc(C(F)(F)F)n3)c2)s1` registered a melting point of 233 °C.

`CCn1c(CCCO)nc(C(C)C)c1Sc1cc(Cl)cc(Cl)c1`: the melting point came to 73 °C.

For the compound `Cc1cc(-c2cnn3c(C(F)(F)F)cc(-c4ccc(OCC(F)(F)F)c(C(F)(F)F)c4)nc23)cc(C)n1`, the melting point turned out to be 229 °C.

`CCCCOC(=O)C1Oc2ccccc2Cc2ccccc2O1` returned a melting point of 63 to 66 °C.

As to `CC(C)(C)OC(=O)n1[nH]c2c(cnc3c([N+](=O)[O-])cccc32)c1=O`, the melting point was above 250 °C.

Regarding `CC(=O)NC[C@H]1CN(c2ccc(N3CCC(n4nnnc4Cc4cccs4)CC3)c(F)c2)C(=O)O1`, the melting point lay within 149 to 150 °C.

The compound `CN(Cc1ccccc1)Cc1nc(-c2ccc(-c3ccccc3)cc2)c[nH]1` had a melting point of 106 to 108 °C.

The compound `COc1ccc(N2C(=O)N(c3ccc(OC)cc3)C(C)c3cnc(Nc4ccccc4)nc32)cc1` (stereo not drawn) registered a melting point of 228 to 234 °C.

`CCC1(C)CC(NC(=O)C(=O)NC2CC(C)(CC)N(C(C)=O)C(C)(CC)C2C)C(C)C(C)(CC)N1C(C)=O` (stereo not drawn) registered a melting point of 164 °C.

Compound `N[C@]1(C(=O)O)C=C[C@H]2[C@H](C(=O)O)[C@H]21` yielded a melting point above 250 °C.

The compound `COC(=O)c1nc(Cl)sc1-c1ccccc1` had a melting point of 63 to 65 °C.

For `Cc1cc(C#N)cc(-c2ccc3c(c2)C(C)(C)OC(=S)N3)c1`, the melting point lay within 230 to 231 °C.

`CCCCCCCCCCCCSCCO` came in with a melting point of 31 to 32 °C.

Regarding `COc1cccc(CNC(=O)c2nc3ccc(O)cc3c(=O)[nH]2)c1`, the melting point is 268 to 271 °C.

`COC(=O)c1ccccc1CS(=O)(=O)N=c1nc2nc(OC)cc(OC)n2s1` registered a melting point of 153 to 154 °C.

`CC(C)(C)C(=O)Nc1cc2c(O)n(I)c(I)nc-2n1` had a melting point of 233 °C.

`O=C1c2cccc3cccc(c23)C(=O)N1CCN1CCN(CCO)CC1` displayed a melting point of 165 to 166 °C.

With `COc1ccc(/C=C/c2nc3c([nH]2)c(=O)n(C)c(=O)n3C)cc1Br`, the melting point is above 280 °C.

As for `CCOC(=O)CCN1CCC[C@H](NCc2ccccc2OC)[C@@H]1c1ccccc1` (relative stereo), the melting point lay in the range of 110 to 112 °C.

`Cc1ccc(CS(=O)c2nc3cc4c(cc3[nH]2)CCC4)nc1` (stereo not drawn): the melting point was in the range of 190 to 191 °C.

On to `NC(=O)[C@H](Cc1ccccc1)N1C(=O)c2ccccc2C1=O`, for which the melting point was 211 to 215 °C.

`CNc1ccccc1C(=O)COC(=O)c1ccccc1` registered a melting point of 85 to 87 °C.

For `CN(C)C=Cc1ccc([N+](=O)[O-])c2[nH]ncc12`, the melting point is 255 °C.

In turn, `COc1ccc2c(c1)/C(=C/C#N)CC2` displayed a melting point of 95 to 96 °C.

The compound `COC(=O)CCCCNC(=O)[C@H](Cc1ccccc1)NC(=O)OC(C)(C)C` displayed a melting point of 98 to 100 °C.

On to `COC(=O)CC[C@H](NC(=O)OCc1ccccc1)C(=O)O`, for which the melting point is 61 to 63 °C.

`CCOC(=O)c1ccc(C(F)(F)F)c(N(C)C(C)=O)n1`: the melting point lay within 145 to 146 °C.

Compound `CCC1=NNC(C)=C(C(=O)OC(C)C)C1c1cccc([N+](=O)[O-])c1` (stereo not drawn) gave a melting point of 108 °C.

In the case of `CC(=O)c1cc2c(cc1OCCCCCBr)OC(C(=O)OC(C)C(C)O)CC2` (stereo not drawn), the melting point is 80 to 83 °C.

On to `COc1ccc(Cn2cnc3c(-c4ccco4)nc(C(C)=O)nc32)cc1`, for which the melting point was 166 to 167 °C.

In turn, `Cn1cc(-c2cccc(I)c2)c(=O)c(-c2cccc(C(F)(F)F)c2)c1` returned a melting point of 178 to 181 °C.

`Nc1ccccc1NCC12CC3CC(CC(C3)C1)C2` returned a melting point of 101 to 104 °C.

With `N#CCCCSc1nccc(NC(N)=NCC(F)(F)F)n1`, the melting point stood at 137 °C.

Compound `CCCc1c(OCCCOc2ccc(C#N)cc2Br)ccc(C(C)=O)c1O` came in with a melting point of 88 to 89 °C.

`COc1ccc(Cc2cnc(N)nc2N)cc1` had a melting point of 206 to 209 °C.

In turn, `CNCC(C)C1(c2ccccc2)C=CCC=C1` (stereo not drawn) yielded a melting point above 250 °C.

With `NC(=O)c1ccc(CN2C(=O)C3(COc4cc5c(cc43)OCCO5)c3ccccc32)cc1` (stereo not drawn), the melting point was in the range of 236 to 238 °C.

For the compound `O=C(Nc1ccc(C(=O)N2Cc3ccccc3Nc3ccccc32)c(Cl)c1)c1ccccc1-c1ccccc1`, the melting point is 158 to 184 °C.

The compound `CC(C)(C)c1cc(CCc2ccccc2NC(=O)NC2CCCCCCC2)cc(C(C)(C)C)c1O` gave a melting point of 174 to 176 °C.

The compound `COc1ccc(N2CCN(c3ccc(-n4cnn([C@H](C)[C@@]5(c6ccc(F)cc6F)CO5)c4=O)cc3)CC2)cc1` gave a melting point of 175 to 176 °C.

Regarding `CCOC(=O)C=Cc1ccc(CCc2nc(-c3ccccc3)oc2C)cc1`, the melting point fell in the range of 73 to 74 °C.

For the compound `O=C1CCSC(c2ccccc2Cl)c2cc([N+](=O)[O-])ccc2N1` (stereo not drawn), the melting point came to 285 °C.

Compound `OCc1ccc(-c2cccnc2)s1` yielded a melting point of 89 to 90 °C.

`O=C(NO)C(CN1C(=O)CNC1=O)CS(=O)(=O)c1ccc(-c2ccc(Cl)cc2)cc1` (stereo not drawn) yielded a melting point of 150 to 156 °C.

In turn, `CC(C)(C)c1cc(C2=CCOCC2)c(O)c(C(C)(C)C)c1` returned a melting point of 135 to 139 °C.

In turn, `O=C(Nc1ccccc1)NC(Cc1c[nH]c2ccccc12)C(=O)NCc1cc(C(F)(F)F)cc(C(F)(F)F)c1` (stereo not drawn) gave a melting point of 219 to 221 °C.

As to `Cc1noc(NC(=O)N2CCC(c3nc(-c4ccccc4)cs3)CC2)c1C`, the melting point fell in the range of 156 to 157 °C.

Regarding `FC(F)(F)CN1CCOC(CN2c3ccccc3C=Cc3ccccc32)C1` (stereo not drawn), the melting point lay in the range of 97 to 98 °C.

For the compound `CCN1CC2CCCC2C1=C[N+](=O)[O-]` (stereo not drawn), the melting point is 86 °C.

`CNc1ccc(N)cc1C(=O)n1nc(O)c2ccccc21` registered a melting point of 184 to 186 °C.

`Cc1ccccc1CC(=NC#N)NC(NC(=O)Cc1ccc(Cl)cc1)C(C)(C)C` (stereo not drawn) had a melting point of 183 to 185 °C.
